What was measured:
AmicoTA [1] = target: T1, AmicoTA (Aminobacterium colombiense, UniProt D5EHC5); assay: half-reaction of PLP form, absorbance at […] nm; assay type: binding
T1 construct: gene Amico_1844; N-terminal His6-TEV tag kept for kinetics, cut for crystals; E. coli Rosetta (DE3) pLysS

AmicoTA [2] = target: T1, AmicoTA; assay: X-ray crystal structure, […] Å; assay type: binding; details: covalent, Schiff base with K142; tag-free protein

T1 sequence (D5EHC5 entry or part of it): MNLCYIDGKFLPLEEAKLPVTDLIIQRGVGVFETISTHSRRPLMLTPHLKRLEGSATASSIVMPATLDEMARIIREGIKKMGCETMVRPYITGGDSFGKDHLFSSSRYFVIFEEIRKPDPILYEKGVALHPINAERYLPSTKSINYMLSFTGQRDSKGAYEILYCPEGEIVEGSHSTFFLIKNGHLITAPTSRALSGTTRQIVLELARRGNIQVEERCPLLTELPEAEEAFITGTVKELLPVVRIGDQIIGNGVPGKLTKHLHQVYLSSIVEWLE

Kd (AmicoTA [1])	X-ray crystal structure, 1.9 Å (AmicoTA [2])	Structure (SMILES)
50 ± 6 mM		C[C@@H](N)C(=O)O [D-alanine]
2.1 ± 0.2 mM		N[C@H](CCC(=O)O)C(=O)O [D-glutamate]
100 ± 10 mM		CC(C)C[C@@H](N)C(=O)O [D-leucine]
19 ± 3 mM		N[C@H](Cc1ccccc1)C(=O)O [D-phenylalanine]
	bound via Schiff base linkage with K142	Cc1ncc(COP(=O)(O)O)c(C=O)c1O [PLP]

From PMC10003956, “To the Understanding of Catalysis by D-Amino Acid Transaminases: A Case Study of the Enzyme from Aminobacterium colombiense” (Molecules, 2023)
